Read-outs that look alike come from different tables or passages of the source.
Assay: Noncompartmental pharmacokinetic parameters (Cmax, Tmax, AUC, Racc) in QD and BID cohorts of Form B
Assay type: in vivo, human
Settings: human, plasma, oral, Compound III
Experimental: Analysis of plasma concentration versus time data for calculation of standard pharmacokinetic (PK) parameters following oral administration was conducted using Phoenix WinNonlin version 6.3 using actual blood sampling times.
The following pharmacokinetic parameters were calculated from the concentration versus time data obtained in Example 1 for each of the above QD (200 mg, 300 mg, 400 mg, 500 mg, or 650 mg dosed) and BID (100 mg, 150 mg, or 200 mg doses) Form B of Compound II dosage cohorts: • Cmax—the observed peak plasma concentration determined from the plasma concentration versus time data obtained on Day 1 and Day 29, as applicable; • Tmax—the time to reach the observed peak plasma concentration from the plasma concentration versus time data obtained on Day 1 and Day 29, as applicable; • AUC—area under the plasma concentration versus time curve during a dosing interval on Day 1 and Day 29, as applicable; and • Racc—accumulation ratio calculated as AUCDay 29/AUCDay 1.

Structure (SMILES): O=C1NCC2(CCCCC2)n2c1cc1cnc(Nc3ccc(N4CCNCC4)cn3)nc12 [Compound III, 2′-((5-(piperazin-1-yl)pyridin-2-yl)amino)-7′,8′-dihydro-6′H-spiro[cyclohexane-1,9′-pyrazino[1′,2′:1,5]pyrrolo[2,3-d]pyrimidin]-6′-one]
- AUC(0-t) (150 mg, 150 mg BID of Form B, Cohort 7, Day 1, read-out: AUClast (Median)): 16.3 ng·h/mL
- Cmax (150 mg, 150 mg BID of Form B, Cohort 7, Day 1, read-out: Cmax (Mean)): 3.2 ng/mL
- Cmax (150 mg, 150 mg BID of Form B, Cohort 7, Day 1, read-out: Cmax (Median)): 3 ng/mL
- Tmax (150 mg, 150 mg BID of Form B, Cohort 7, Day 1, read-out: Tmax (Mean)): 3 h
- Tmax (150 mg, 150 mg BID of Form B, Cohort 7, Day 1, read-out: Tmax (Median)): 3 h
- AUC(0-t) (150 mg, 150 mg BID of Form B, Cohort 7, Day 29, read-out: AUClast (Mean)): 47.9 ng·h/mL
- AUC(0-t) (150 mg, 150 mg BID of Form B, Cohort 7, Day 29, read-out: AUClast (Median)): 23.3 ng·h/mL
- Cmax (150 mg, 150 mg BID of Form B, Cohort 7, Day 29, read-out: Cmax (Mean)): 6.23 ng/mL
- Cmax (150 mg, 150 mg BID of Form B, Cohort 7, Day 29, read-out: Cmax (Median)): 3.55 ng/mL
- Tmax (150 mg, 150 mg BID of Form B, Cohort 7, Day 29, read-out: Tmax (Mean)): 3 h
- Tmax (150 mg, 150 mg BID of Form B, Cohort 7, Day 29, read-out: Tmax (Median)): 3 h
- AUC(0-t) (200 mg, 200 mg BID of Form B, Cohort 8, Day 1, read-out: AUClast (Mean)): 17.2 ng·h/mL
- AUC(0-t) (200 mg, 200 mg BID of Form B, Cohort 8, Day 1, read-out: AUClast (Median)): 18.6 ng·h/mL
- Cmax (200 mg, 200 mg BID of Form B, Cohort 8, Day 1, read-out: Cmax (Mean)): 2.87 ng/mL
- Cmax (200 mg, 200 mg BID of Form B, Cohort 8, Day 1, read-out: Cmax (Median)): 3 ng/mL
- Tmax (200 mg, 200 mg BID of Form B, Cohort 8, Day 1, read-out: Tmax (Mean)): 4.75 h
- Tmax (200 mg, 200 mg BID of Form B, Cohort 8, Day 1, read-out: Tmax (Median)): 5 h
- AUC(0-t) (200 mg, 200 mg BID of Form B, Cohort 8, Day 29, read-out: AUClast (Mean)): 22 ng·h/mL
- AUC(0-t) (200 mg, 200 mg BID of Form B, Cohort 8, Day 29, read-out: AUClast (Median)): 20.1 ng·h/mL
- Cmax (200 mg, 200 mg BID of Form B, Cohort 8, Day 29, read-out: Cmax (Mean)): 2.79 ng/mL
- Cmax (200 mg, 200 mg BID of Form B, Cohort 8, Day 29, read-out: Cmax (Median)): 2.77 ng/mL
- Tmax (200 mg, 200 mg BID of Form B, Cohort 8, Day 29, read-out: Tmax (Mean)): 6.33 h
- Tmax (200 mg, 200 mg BID of Form B, Cohort 8, Day 29, read-out: Tmax (Median)): 4 h
- AUC(0-t) (200 mg, 200 mg QD of Form B, Cohort 1, Day 1, read-out: AUClast (Mean)): 23.7 ng·h/mL
- AUC(0-t) (200 mg, 200 mg QD of Form B, Cohort 1, Day 1, read-out: AUClast (Median)): 21.3 ng·h/mL
- Cmax (200 mg, 200 mg QD of Form B, Cohort 1, Day 1, read-out: Cmax (Mean)): 4.18 ng/mL
- Cmax (200 mg, 200 mg QD of Form B, Cohort 1, Day 1, read-out: Cmax (Median)): 3.88 ng/mL
- Tmax (200 mg, 200 mg QD of Form B, Cohort 1, Day 1, read-out: Tmax (Mean)): 4.17 h
- Tmax (200 mg, 200 mg QD of Form B, Cohort 1, Day 1, read-out: Tmax (Median)): 4 h
- AUC(0-t) (200 mg, 200 mg QD of Form B, Cohort 1, Day 29, read-out: AUClast (Mean)): 27.9 ng·h/mL
- AUC(0-t) (200 mg, 200 mg QD of Form B, Cohort 1, Day 29, read-out: AUClast (Median)): 25.4 ng·h/mL
- Cmax (200 mg, 200 mg QD of Form B, Cohort 1, Day 29, read-out: Cmax (Mean)): 3.14 ng/mL
- Cmax (200 mg, 200 mg QD of Form B, Cohort 1, Day 29, read-out: Cmax (Median)): 2.52 ng/mL
- Tmax (200 mg, 200 mg QD of Form B, Cohort 1, Day 29, read-out: Tmax (Mean)): 4.2 h
- Tmax (200 mg, 200 mg QD of Form B, Cohort 1, Day 29, read-out: Tmax (Median)): 4 h
- AUC(0-t) (300 mg, 300 mg QD of Form B, Cohort 2, Day 1, read-out: AUClast (Mean)): 43.1 ng·h/mL
- AUC(0-t) (300 mg, 300 mg QD of Form B, Cohort 2, Day 1, read-out: AUClast (Median)): 53.1 ng·h/mL
- Cmax (300 mg, 300 mg QD of Form B, Cohort 2, Day 1, read-out: Cmax (Mean)): 4.81 ng/mL
- Cmax (300 mg, 300 mg QD of Form B, Cohort 2, Day 1, read-out: Cmax (Median)): 6.21 ng/mL
- Tmax (300 mg, 300 mg QD of Form B, Cohort 2, Day 1, read-out: Tmax (Mean)): 3.67 h
- Tmax (300 mg, 300 mg QD of Form B, Cohort 2, Day 1, read-out: Tmax (Median)): 4 h
- AUC(0-t) (300 mg, 300 mg QD of Form B, Cohort 2, Day 29, read-out: AUClast (Mean)): 66.2 ng·h/mL
- AUC(0-t) (300 mg, 300 mg QD of Form B, Cohort 2, Day 29, read-out: AUClast (Median)): 56.1 ng·h/mL
- Cmax (300 mg, 300 mg QD of Form B, Cohort 2, Day 29, read-out: Cmax (Mean)): 5.44 ng/mL
- Cmax (300 mg, 300 mg QD of Form B, Cohort 2, Day 29, read-out: Cmax (Median)): 5.56 ng/mL
- Tmax (300 mg, 300 mg QD of Form B, Cohort 2, Day 29, read-out: Tmax (Mean)): 5.33 h
- Tmax (300 mg, 300 mg QD of Form B, Cohort 2, Day 29, read-out: Tmax (Median)): 4 h
- AUC(0-t) (400 mg, 400 mg QD of Form B, Cohort 3, Day 1, read-out: AUClast (Mean)): 25.6 ng·h/mL
- AUC(0-t) (400 mg, 400 mg QD of Form B, Cohort 3, Day 1, read-out: AUClast (Median)): 29.2 ng·h/mL
- Cmax (400 mg, 400 mg QD of Form B, Cohort 3, Day 1, read-out: Cmax (Mean)): 4.85 ng/mL
- Cmax (400 mg, 400 mg QD of Form B, Cohort 3, Day 1, read-out: Cmax (Median)): 4.66 ng/mL
- Tmax (400 mg, 400 mg QD of Form B, Cohort 3, Day 1, read-out: Tmax (Mean)): 4.33 h
- Tmax (400 mg, 400 mg QD of Form B, Cohort 3, Day 1, read-out: Tmax (Median)): 6 h
- AUC(0-t) (400 mg, 400 mg QD of Form B, Cohort 3, Day 29, read-out: AUClast (Mean)): 42.6 ng·h/mL
- AUC(0-t) (400 mg, 400 mg QD of Form B, Cohort 3, Day 29, read-out: AUClast (Median)): 40.9 ng·h/mL
- Cmax (400 mg, 400 mg QD of Form B, Cohort 3, Day 29, read-out: Cmax (Mean)): 3.5 ng/mL
- Cmax (400 mg, 400 mg QD of Form B, Cohort 3, Day 29, read-out: Cmax (Median)): 3.4 ng/mL
- Tmax (400 mg, 400 mg QD of Form B, Cohort 3, Day 29, read-out: Tmax (Mean)): 5.33 h
- Tmax (400 mg, 400 mg QD of Form B, Cohort 3, Day 29, read-out: Tmax (Median)): 6 h
- AUC(0-t) (500 mg, 500 mg QD of Form B, Cohort 4, Day 1, read-out: AUClast (Mean)): 77.7 ng·h/mL
- AUC(0-t) (500 mg, 500 mg QD of Form B, Cohort 4, Day 1, read-out: AUClast (Median)): 79 ng·h/mL
- Cmax (500 mg, 500 mg QD of Form B, Cohort 4, Day 1, read-out: Cmax (Mean)): 7.98 ng/mL
- Cmax (500 mg, 500 mg QD of Form B, Cohort 4, Day 1, read-out: Cmax (Median)): 8.03 ng/mL
- Tmax (500 mg, 500 mg QD of Form B, Cohort 4, Day 1, read-out: Tmax (Mean)): 5.5 h
- Tmax (500 mg, 500 mg QD of Form B, Cohort 4, Day 1, read-out: Tmax (Median)): 6 h
- AUC(0-t) (500 mg, 500 mg QD of Form B, Cohort 4, Day 29, read-out: AUClast (Mean)): 66.4 ng·h/mL
- AUC(0-t) (500 mg, 500 mg QD of Form B, Cohort 4, Day 29, read-out: AUClast (Median)): 69.6 ng·h/mL
- Cmax (500 mg, 500 mg QD of Form B, Cohort 4, Day 29, read-out: Cmax (Mean)): 5.98 ng/mL
- Cmax (500 mg, 500 mg QD of Form B, Cohort 4, Day 29, read-out: Cmax (Median)): 5.37 ng/mL
- Tmax (500 mg, 500 mg QD of Form B, Cohort 4, Day 29, read-out: Tmax (Mean)): 3.67 h
- Tmax (500 mg, 500 mg QD of Form B, Cohort 4, Day 29, read-out: Tmax (Median)): 4 h
- AUC(0-t) (650 mg, 650 mg QD of Form B, Cohort 5, Day 1, read-out: AUClast (Mean)): 123 ng·h/mL
- AUC(0-t) (650 mg, 650 mg QD of Form B, Cohort 5, Day 1, read-out: AUClast (Median)): 125 ng·h/mL
- Cmax (650 mg, 650 mg QD of Form B, Cohort 5, Day 1, read-out: Cmax (Mean)): 10.9 ng/mL
- Cmax (650 mg, 650 mg QD of Form B, Cohort 5, Day 1, read-out: Cmax (Median)): 10.4 ng/mL
- Tmax (650 mg, 650 mg QD of Form B, Cohort 5, Day 1, read-out: Tmax (Mean)): 6.67 h
- Tmax (650 mg, 650 mg QD of Form B, Cohort 5, Day 1, read-out: Tmax (Median)): 7 h
- AUC(0-t) (650 mg, 650 mg QD of Form B, Cohort 5, Day 29, read-out: AUClast (Mean)): 125 ng·h/mL
- AUC(0-t) (650 mg, 650 mg QD of Form B, Cohort 5, Day 29, read-out: AUClast (Median)): 125 ng·h/mL
- Cmax (650 mg, 650 mg QD of Form B, Cohort 5, Day 29, read-out: Cmax (Mean)): 8.7 ng/mL
- Cmax (650 mg, 650 mg QD of Form B, Cohort 5, Day 29, read-out: Cmax (Median)): 8.7 ng/mL
- Tmax (650 mg, 650 mg QD of Form B, Cohort 5, Day 29, read-out: Tmax (Mean)): 7 h
- Tmax (650 mg, 650 mg QD of Form B, Cohort 5, Day 29, read-out: Tmax (Median)): 7 h
